From US20070179060A1, “6-(Poly-substituted aryl)-4-aminopicolinates and their use as herbicides” (priority 2006, published 2007)

Experiments:
[1] = system: redroot pigweed (Amaranthus retroflexus); experiment: Preemergence herbicidal activity; type: in vivo; settings: pre-emergent, 140 g ai/ha, after 20-22 days; for pest or weed control at 140 g/ha: Amaranthus retroflexus, pre-emergence, 480 h, read-out: % Control AMARE
Procedure, shortened: (§1)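 Seeds sown in 70:30 loam (pH about 8.1, about 1.5% organic matter) and sand mix, then sprayed preemergence at 187 L/ha with a track sprayer; controls received solvent blank. Pots kept in greenhouse, about 15 h photoperiod, about 23-29° C. day and 22-28° C. night, top-irrigated.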

[2] = system: lambsquarter (Chenopodium album); experiment: Preemergence herbicidal activity; type: in vivo; settings: pre-emergent, 140 g ai/ha, after 20-22 days; for pest or weed control at 140 g/ha: Chenopodium album, pre-emergence, 480 h, read-out: % Control CHEAL
Procedure, shortened: as §1

[3] = system: velvetleaf (Abutilon theophrasti); experiment: Preemergence herbicidal activity; type: in vivo; settings: pre-emergent, 140 g ai/ha, after 20-22 days; for pest or weed control at 140 g/ha: Abutilon theophrasti, pre-emergence, 480 h, read-out: % Control ABUTH
Procedure, shortened: as §1

[4] = system: redroot pigweed (Amaranthus retroflexus); experiment: Postemergence herbicidal activity; type: in vivo; settings: post-emergent, 140 g ai/ha, after 14 days; for pest or weed control at 140 g/ha: Amaranthus retroflexus, post-emergence, 336 h, read-out: % Control AMARE
Procedure, shortened: (§2)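 Plants grown 7-21 days in greenhouse (about 15 h photoperiod, 23-29° C day, 22-28° C night) to first or second true leaf stage. Compounds in acetone/water/isopropanol/DMSO carrier with crop oil concentrate and Triton X-155 sprayed overhead at 187 L/ha; controls received solvent blank. Plants sub-irrigated afterwards; dose responses analysed by probit analysis.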

[5] = system: lambsquarter (Chenopodium album); experiment: Postemergence herbicidal activity; type: in vivo; settings: post-emergent, 140 g ai/ha, after 14 days; for pest or weed control at 140 g/ha: Chenopodium album, post-emergence, 336 h, read-out: % Control CHEAL
Procedure, shortened: as §2

[6] = system: velvetleaf (Abutilon theophrasti); experiment: Postemergence herbicidal activity; type: in vivo; settings: post-emergent, 140 g ai/ha, after 14 days; for pest or weed control at 140 g/ha: Abutilon theophrasti, post-emergence, 336 h, read-out: % Control ABUTH
Procedure, shortened: as §2

[7] = system: wheat (Triticum aestivum); experiment: Postemergence herbicidal activity in cereal crops; type: in vivo; settings: crop, post-emergent, after 20-22 days; for plant injury at 70 g/ha: 70 g ai/ha; for plant injury at 17.5 g/ha: 17.5 g ai/ha
Description: (§3) When required to ensure good germination and healthy plants, a fungicide treatment and/or other chemical or physical treatment was applied. The plants were grown for 7-36 days in a greenhouse with an approximate 14 hour photoperiod which was maintained at about 18° C. during the day and 17° C. during the night. Nutrients and water were added on a regular basis and supplemental lighting was provided with overhead metal halide 1000-Watt lamps as necessary. The plants were employed for testing when they reached the second or third true leaf stage. […] The concentrated stock solutions obtained were diluted with 16 mL of an aqueous mixture containing acetone, water, isopropyl alcohol, DMSO, Agri-dex crop oil concentrate, and Triton® X-77 surfactant in a 64.7:26.0:6.7:2.0:0.7:0.01 v/v ratio to obtain spray solutions containing the highest application rates. […] Compound requirements are based upon a 12 mL application volume at a rate of 187 L/ha. Formulated compounds were applied to the plant material with an overhead Mandel track sprayer equipped with a […] nozzles calibrated to deliver 187 L/ha over an application area of 0.503 square meters at a spray height of 18 inches (43 cm) above average plant canopy height. Control plants were sprayed in the same manner with the blank. The treated plants and control plants were placed in a greenhouse as described above and watered by sub-irrigation to prevent wash-off of the test compounds.

barley (Hordeum vulare) = experiment: Postemergence herbicidal activity in cereal crops; type: in vivo; settings: crop, post-emergent, after 20-22 days; for pest or weed control at 70 g/ha: 70 g ai/ha; for pest or weed control at 17.5 g/ha: 17.5 g ai/ha
Description: as §3

Galium aparine = experiment: Postemergence herbicidal activity in cereal crops; type: in vivo; settings: post-emergent, after 20-22 days; for pest or weed control at 70 g/ha: 70 g ai/ha; for pest or weed control at 17.5 g/ha: 17.5 g ai/ha
Description: as §3

Papaver rhoeas = experiment: Postemergence herbicidal activity in cereal crops; type: in vivo; settings: post-emergent, after 20-22 days; for pest or weed control at 70 g/ha: 70 g ai/ha; for pest or weed control at 17.5 g/ha: 17.5 g ai/ha
Description: as §3

Veronica persica = experiment: Postemergence herbicidal activity in cereal crops; type: in vivo; settings: post-emergent, after 20-22 days; for pest or weed control at 70 g/ha: 70 g ai/ha; for pest or weed control at 17.5 g/ha: 17.5 g ai/ha
Description: as §3

Lamium purpureum = experiment: Postemergence herbicidal activity in cereal crops; type: in vivo; settings: post-emergent, after 20-22 days; for pest or weed control at 70 g/ha: 70 g ai/ha; for pest or weed control at 17.5 g/ha: 17.5 g ai/ha
Description: as §3

[8] = Triticum aestivum, post-emergence, 480 h, read-out: % Control TRZAS
[9] = Hordeum, post-emergence, 480 h, read-out: % Control HORVS
[10] = Galium aparine, post-emergence, 480 h, read-out: % Control GALAP
[11] = Papaver rhoeas, post-emergence, 480 h, read-out: % Control PAPRH
[12] = Veronica persica, post-emergence, 480 h, read-out: % Control VERPE
[13] = Lamium purpureum, post-emergence, 480 h, read-out: % Control LAMPU

| melting point [°C] | Compound | pest or weed control at 140 g/ha [1] [%] | pest or weed control at 140 g/ha [2] [%] | pest or weed control at 140 g/ha [3] [%] | pest or weed control at 140 g/ha [4] [%] | pest or weed control at 140 g/ha [5] [%] | pest or weed control at 140 g/ha [6] [%] | plant injury at 70 g/ha [7, 8] [%] | pest or weed control at 70 g/ha (barley (Hordeum vulare); [9]) [%] | pest or weed control at 70 g/ha (Galium aparine; [10]) [%] | pest or weed control at 70 g/ha (Papaver rhoeas; [11]) [%] | pest or weed control at 70 g/ha (Veronica persica; [12]) [%] | pest or weed control at 70 g/ha (Lamium purpureum; [13]) [%] | plant injury at 17.5 g/ha [7, 8] [%] | pest or weed control at 17.5 g/ha (barley (Hordeum vulare); [9]) [%] | pest or weed control at 17.5 g/ha (Galium aparine; [10]) [%] | pest or weed control at 17.5 g/ha (Papaver rhoeas; [11]) [%] | pest or weed control at 17.5 g/ha (Veronica persica; [12]) [%] | pest or weed control at 17.5 g/ha (Lamium purpureum; [13]) [%] | other results |
| --- | --- | --- | --- | --- | --- | --- | --- | --- | --- | --- | --- | --- | --- | --- | --- | --- | --- | --- | --- | --- |
| – | COC(=O)c1nc(-c2ccc(Cl)c(SC)c2F)cc(N)c1Cl [Compound 1] | – | – | – | – | – | – | – | – | – | – | – | – | – | – | – | – | – | – | % Control AMARE [1]: 100%; % Control CHEAL [2]: 90%; % Control ABUTH [3]: 80%; % Control AMARE [4]: 100%; % Control CHEAL [5]: 100%; % Control ABUTH [6]: 85%; % Control TRZAS ([7]; 35 g ai/ha): 5%; % Control HORVS (barley (Hordeum vulare); 35 g ai/ha): 10%; % Control GALAP (Galium aparine; 35 g ai/ha): 85%; % Control PAPRH (Papaver rhoeas; 35 g ai/ha): 80%; % Control VERPE (Veronica persica; 35 g ai/ha): 50%; % Control LAMPU (Lamium purpureum; 35 g ai/ha): 80% |
| – | COC(=O)c1nc(-c2cc(OC)c(Cl)cc2F)cc(N)c1Cl [Compound 43, 4-Amino-3-chloro-6-(4-chloro-2-fluoro-5-methoxyphenyl)pyridine-2-carboxylic acid methyl ester] | 100 | 100 | 98 | 100 | 100 | 100 | 0 | 5 | 65 | 85 | 30 | 99 | – | – | – | – | – | – | – |
| 144 to 146 | COC(=O)c1nc(-c2ccc(C(F)(F)F)c(OC)c2F)cc(N)c1Cl [Compound 45, 4-Amino-3-chloro-6-(2-fluoro-3-methoxy-4-trifluoromethylphenyl)pyridine-2-carboxylic acid methyl ester] | – | – | – | 80 | 95 | 100 | – | – | – | – | – | – | 0 | 0 | 90 | 90 | 80 | 100 | – |
| 113 to 115 | COC(=O)c1nc(-c2cc(N(C)C)c(Cl)cc2F)cc(N)c1Cl [Compound 26, 4-amino-3-chloro-6-(4-chloro-5-dimethylamino-2-fluorophenyl)pyridine-2-carboxylic acid methyl ester] | 10 | 90 | 10 | 100 | 100 | 100 | 0 | 10 | 80 | 95 | 40 | 95 | – | – | – | – | – | – | – |
| 172 to 173 | COC(=O)c1nc(-c2ccc(Cl)c(OC)c2F)c(F)c(N)c1Cl [Compound 14, 4-Amino-3-chloro-5-fluoro-6-(4-chloro-2-fluoro-3-methoxyphenyl)pyridine-2-carboxylic acid methyl ester] | 100 | 100 | 100 | 100 | 100 | 100 | – | – | – | – | – | – | – | – | – | – | – | – | plant injury at 35 g/ha ([7]; Triticum aestivum, post-emergence, 480 h, 35 g ai/ha, read-out: % Control TRZAS): 0%; pest or weed control at 35 g/ha (barley (Hordeum vulare); Hordeum, post-emergence, 480 h, 35 g ai/ha, read-out: % Control HORVS): 0%; pest or weed control at 35 g/ha (Galium aparine; Galium aparine, post-emergence, 480 h, 35 g ai/ha, read-out: % Control GALAP): 90%; pest or weed control at 35 g/ha (Papaver rhoeas; Papaver rhoeas, post-emergence, 480 h, 35 g ai/ha, read-out: % Control PAPRH): 95%; pest or weed control at 35 g/ha (Veronica persica; Veronica persica, post-emergence, 480 h, 35 g ai/ha, read-out: % Control VERPE): 65%; pest or weed control at 35 g/ha (Lamium purpureum; Lamium purpureum, post-emergence, 480 h, 35 g ai/ha, read-out: % Control LAMPU): 95% |
| – | COC(=O)c1nc(-c2c(F)cc(Cl)c(N(C)C)c2F)cc(N)c1Cl [Compound 50, 4-Amino-3-chloro-6-[4-chloro-3-(dimethylamino)-2,6-difluorophenyl]pyridine-2-carboxylic acid, methyl ester] | 100 | 100 | 100 | 100 | 100 | 100 | 0 | 0 | 95 | 95 | 60 | 100 | – | – | – | – | – | – | – |
| – | COc1cc(-c2cc(N)c(Cl)c(C(=O)O)n2)c(F)cc1Cl [Compound 101, 4-Amino-3-chloro-6-(4-chloro-2-fluoro-5-methoxyphenyl)pyridine-2-carboxylic acid] | 100 | 100 | 100 | 100 | 100 | 100 | 10 | 5 | 60 | 100 | 60 | 99 | – | – | – | – | – | – | – |
| 104 to 106 | COC(=O)c1nc(-c2ccc(Cl)c(N(C)C)c2F)cc(N)c1Cl [Compound 16, 4-Amino-3-chloro-6-(4-chloro-3-dimethylamino-2-fluorophenyl)pyridine-2-carboxylic acid, methyl ester] | 100 | 100 | 90 | 100 | 100 | 100 | – | – | – | – | – | – | 10 | 10 | 95 | 95 | 95 | 100 | – |
| 145 to 147 | COC(=O)c1nc(-c2ccc(C(F)F)c(OC)c2F)cc(N)c1Cl [Compound 71, 4-Amino-3-chloro-6-(4-difluoromethyl-2-fluoro-3-methoxyphenyl)pyridine-2-carboxylic acid, methyl ester] | – | – | – | 80 | 85 | 100 | – | – | – | – | – | – | 0 | 0 | 95 | 95 | 50 | 95 | – |
